Values belong to the molecule of their own block, whether it stands above or below them.
What was measured:
Test in all cases: Competitive isoTOP-ABPP in situ (fragment-treated cells)
Format in all cases: cell-based
[1] = biological target: T1, cysteines in MDA-MB-231 and Ramos cells (Homo sapiens, UniProt Q01433)
T1 sequence (Q01433 1-825): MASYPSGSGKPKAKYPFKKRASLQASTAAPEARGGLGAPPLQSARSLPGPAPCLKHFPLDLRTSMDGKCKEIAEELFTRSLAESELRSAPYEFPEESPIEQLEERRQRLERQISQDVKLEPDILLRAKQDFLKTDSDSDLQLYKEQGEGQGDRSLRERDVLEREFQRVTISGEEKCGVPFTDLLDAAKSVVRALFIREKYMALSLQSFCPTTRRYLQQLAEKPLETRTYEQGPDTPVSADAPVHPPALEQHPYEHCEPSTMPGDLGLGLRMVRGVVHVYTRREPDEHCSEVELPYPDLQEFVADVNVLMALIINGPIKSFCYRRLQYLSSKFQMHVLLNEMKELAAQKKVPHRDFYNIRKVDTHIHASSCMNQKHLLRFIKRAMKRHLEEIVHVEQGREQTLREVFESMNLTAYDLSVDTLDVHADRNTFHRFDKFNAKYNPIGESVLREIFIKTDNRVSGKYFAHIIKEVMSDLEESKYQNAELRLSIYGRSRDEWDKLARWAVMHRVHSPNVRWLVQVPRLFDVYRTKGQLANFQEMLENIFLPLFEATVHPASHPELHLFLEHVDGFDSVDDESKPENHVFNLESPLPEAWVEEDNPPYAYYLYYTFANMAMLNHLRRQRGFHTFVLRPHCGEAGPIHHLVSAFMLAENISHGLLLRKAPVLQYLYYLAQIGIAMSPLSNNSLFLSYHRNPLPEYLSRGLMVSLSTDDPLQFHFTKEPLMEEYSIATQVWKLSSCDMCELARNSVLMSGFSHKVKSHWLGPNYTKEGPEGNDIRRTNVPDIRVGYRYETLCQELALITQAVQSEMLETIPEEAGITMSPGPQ

[2] = biological target: T2, cysteines in MDA-MB-231 and Ramos cells (Homo sapiens, UniProt Q9NX18)
T2 sequence (Q9NX18 30-166): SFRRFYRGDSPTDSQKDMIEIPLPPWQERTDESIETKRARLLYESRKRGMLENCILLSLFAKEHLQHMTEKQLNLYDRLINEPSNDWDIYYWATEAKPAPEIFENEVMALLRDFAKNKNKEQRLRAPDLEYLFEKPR

[3] = biological target: cysteines in MDA-MB-231 and Ramos cells (Homo sapiens, UniProt Q5MNZ6)
Chain of cysteines in MDA-MB-231 and Ramos cells (Homo sapiens, UniProt Q5MNZ6) (Q5MNZ6 whole entry): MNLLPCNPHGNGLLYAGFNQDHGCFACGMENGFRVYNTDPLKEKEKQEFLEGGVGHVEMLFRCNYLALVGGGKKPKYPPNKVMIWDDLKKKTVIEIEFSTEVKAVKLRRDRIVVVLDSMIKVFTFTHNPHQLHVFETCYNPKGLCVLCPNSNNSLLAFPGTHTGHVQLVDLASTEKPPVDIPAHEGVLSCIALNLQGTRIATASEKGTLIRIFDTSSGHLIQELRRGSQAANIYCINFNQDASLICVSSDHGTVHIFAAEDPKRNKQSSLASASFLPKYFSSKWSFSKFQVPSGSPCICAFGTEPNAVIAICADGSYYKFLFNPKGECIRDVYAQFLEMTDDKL

[4] = biological target: cysteines in MDA-MB-231 and Ramos cells (Homo sapiens, UniProt Q6XZF7)
Chain of cysteines in MDA-MB-231 and Ramos cells (Homo sapiens, UniProt Q6XZF7) (Q6XZF7 whole entry): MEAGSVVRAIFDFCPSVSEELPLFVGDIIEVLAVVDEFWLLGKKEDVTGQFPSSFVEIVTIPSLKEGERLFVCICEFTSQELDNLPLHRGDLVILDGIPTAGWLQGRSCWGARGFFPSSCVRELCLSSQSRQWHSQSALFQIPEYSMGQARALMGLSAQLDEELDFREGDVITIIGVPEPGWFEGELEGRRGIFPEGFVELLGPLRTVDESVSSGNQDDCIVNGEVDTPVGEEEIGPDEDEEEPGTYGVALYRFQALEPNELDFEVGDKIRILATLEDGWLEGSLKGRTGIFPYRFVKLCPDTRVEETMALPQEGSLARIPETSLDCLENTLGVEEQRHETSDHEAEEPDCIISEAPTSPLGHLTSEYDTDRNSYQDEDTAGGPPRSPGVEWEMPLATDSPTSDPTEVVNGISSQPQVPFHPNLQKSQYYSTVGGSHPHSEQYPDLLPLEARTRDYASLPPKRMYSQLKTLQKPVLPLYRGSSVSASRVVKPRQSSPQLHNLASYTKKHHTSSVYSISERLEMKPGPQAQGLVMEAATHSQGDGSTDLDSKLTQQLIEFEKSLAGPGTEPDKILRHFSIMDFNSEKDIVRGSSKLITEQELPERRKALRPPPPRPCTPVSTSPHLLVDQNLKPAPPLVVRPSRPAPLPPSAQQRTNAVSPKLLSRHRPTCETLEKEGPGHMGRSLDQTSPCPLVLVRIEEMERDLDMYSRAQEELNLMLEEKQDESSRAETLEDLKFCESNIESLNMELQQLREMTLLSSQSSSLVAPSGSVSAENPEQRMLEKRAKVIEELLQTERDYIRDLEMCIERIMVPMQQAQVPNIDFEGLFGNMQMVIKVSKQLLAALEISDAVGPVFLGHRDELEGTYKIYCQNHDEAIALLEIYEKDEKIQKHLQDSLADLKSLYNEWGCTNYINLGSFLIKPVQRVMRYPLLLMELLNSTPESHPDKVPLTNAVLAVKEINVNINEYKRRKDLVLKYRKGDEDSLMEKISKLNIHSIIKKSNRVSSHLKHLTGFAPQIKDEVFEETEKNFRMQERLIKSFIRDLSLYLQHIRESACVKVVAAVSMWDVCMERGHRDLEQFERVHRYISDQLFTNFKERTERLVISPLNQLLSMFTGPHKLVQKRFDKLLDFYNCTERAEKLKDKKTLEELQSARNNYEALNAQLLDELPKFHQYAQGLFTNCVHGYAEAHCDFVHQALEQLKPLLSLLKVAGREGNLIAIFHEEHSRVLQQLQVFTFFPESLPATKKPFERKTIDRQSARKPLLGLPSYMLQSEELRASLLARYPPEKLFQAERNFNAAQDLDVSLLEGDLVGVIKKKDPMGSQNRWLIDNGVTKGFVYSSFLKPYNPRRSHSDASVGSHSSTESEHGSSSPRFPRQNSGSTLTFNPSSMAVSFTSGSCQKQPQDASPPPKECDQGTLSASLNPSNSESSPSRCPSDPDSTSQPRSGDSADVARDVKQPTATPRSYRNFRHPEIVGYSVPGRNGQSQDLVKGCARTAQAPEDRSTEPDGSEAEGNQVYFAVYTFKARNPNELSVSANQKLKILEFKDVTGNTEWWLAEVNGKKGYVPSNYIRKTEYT

[5] = biological target: cysteines in MDA-MB-231 and Ramos cells (Homo sapiens, UniProt Q8NBS9)
Chain of cysteines in MDA-MB-231 and Ramos cells (Homo sapiens, UniProt Q8NBS9) (Q8NBS9 33-432): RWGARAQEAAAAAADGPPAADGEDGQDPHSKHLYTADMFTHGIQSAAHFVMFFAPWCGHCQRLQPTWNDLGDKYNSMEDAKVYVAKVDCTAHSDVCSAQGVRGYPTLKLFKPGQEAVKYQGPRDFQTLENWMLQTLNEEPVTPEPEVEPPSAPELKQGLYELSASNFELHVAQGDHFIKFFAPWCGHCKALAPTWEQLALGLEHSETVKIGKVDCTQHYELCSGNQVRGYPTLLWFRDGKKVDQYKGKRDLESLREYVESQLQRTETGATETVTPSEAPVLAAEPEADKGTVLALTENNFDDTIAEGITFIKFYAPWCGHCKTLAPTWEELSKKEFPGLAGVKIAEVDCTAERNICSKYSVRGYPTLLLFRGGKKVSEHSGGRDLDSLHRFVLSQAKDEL

[6] = biological target: T3, cysteines in MDA-MB-231 and Ramos cells (Homo sapiens, UniProt Q5TFE4); conditions: 200 μM, insitu
T3 sequence (Q5TFE4 1-455): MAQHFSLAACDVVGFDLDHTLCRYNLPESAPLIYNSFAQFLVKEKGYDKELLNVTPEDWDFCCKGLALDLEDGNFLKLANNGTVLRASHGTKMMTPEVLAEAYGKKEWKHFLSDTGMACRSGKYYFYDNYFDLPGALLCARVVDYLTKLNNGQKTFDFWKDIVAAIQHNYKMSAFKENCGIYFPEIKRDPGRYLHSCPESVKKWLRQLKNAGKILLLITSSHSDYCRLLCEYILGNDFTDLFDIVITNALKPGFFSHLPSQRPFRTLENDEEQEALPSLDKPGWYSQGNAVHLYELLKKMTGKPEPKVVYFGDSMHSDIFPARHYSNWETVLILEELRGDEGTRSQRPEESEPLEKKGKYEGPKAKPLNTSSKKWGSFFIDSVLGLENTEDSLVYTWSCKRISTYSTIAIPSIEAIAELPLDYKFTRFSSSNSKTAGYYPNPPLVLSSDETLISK

[7] = biological target: T4, cysteines in MDA-MB-231 and Ramos cells (Homo sapiens, UniProt O75439)
T4 sequence (O75439 44-489): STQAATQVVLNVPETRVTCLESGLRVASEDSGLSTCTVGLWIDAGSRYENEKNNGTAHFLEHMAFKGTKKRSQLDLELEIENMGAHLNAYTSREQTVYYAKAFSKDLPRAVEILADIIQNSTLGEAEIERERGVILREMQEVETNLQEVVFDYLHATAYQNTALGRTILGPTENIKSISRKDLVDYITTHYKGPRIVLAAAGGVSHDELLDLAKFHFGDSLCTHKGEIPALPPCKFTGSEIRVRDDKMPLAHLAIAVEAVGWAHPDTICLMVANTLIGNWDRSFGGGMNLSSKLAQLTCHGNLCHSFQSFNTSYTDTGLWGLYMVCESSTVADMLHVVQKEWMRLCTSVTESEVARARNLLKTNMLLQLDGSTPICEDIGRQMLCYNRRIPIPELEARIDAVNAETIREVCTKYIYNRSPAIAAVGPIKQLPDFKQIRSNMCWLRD

isoTOP-ABPP reactivity Q01433_C107 AMPD2 ([1]; 200 μM, insitu, 231): 4.4
isoTOP-ABPP reactivity Q9NX18_C83 SDHAF2 ([2]; 200 μM, insitu, 231): 3.1
Compound: COc1ccc2c(c1)CCCN2C(=O)CCl [compound 2]

isoTOP-ABPP reactivity Q01433_C107 AMPD2 ([1]; 100 μM in situ 231): 2.3
isoTOP-ABPP reactivity Q5MNZ6_C63 WDR45L ([3]; 100 μM in situ 231): 2.0
isoTOP-ABPP reactivity Q6XZF7_C691 DNMBP ([4]; 100 μM in situ 231): 1.2
isoTOP-ABPP reactivity Q8NBS9_C350 TXNDC5 ([5]; 100 μM in situ 231): 2.4
isoTOP-ABPP reactivity Q9NX18_C83 SDHAF2 ([2]; 100 μM in situ 231): 3.0
Compound: COc1ccc(C2CC(c3cccs3)=NN2C(=O)CCl)cc1 (centres unmarked) [compound 4]

isoTOP-ABPP reactivity Q01433_C107 AMPD2 ([1]; 200 μM, insitu, 231): 6.2
isoTOP-ABPP reactivity Q5MNZ6_C63 WDR45L ([3]; 200 μM, insitu, 231): 20.0
Compound: COc1cc2c(cc1OC)CN(C(=O)CCl)CC2 [compound 8]

isoTOP-ABPP reactivity Q01433_C107 AMPD2 ([1]; 200 μM, insitu, 231): 3.1
isoTOP-ABPP reactivity Q5TFE4_C119 NT5DC1 [6]; 231: 20.0
isoTOP-ABPP reactivity Q6XZF7_C691 DNMBP ([4]; 200 μM, insitu, 231): 3.4
isoTOP-ABPP reactivity Q8NBS9_C350 TXNDC5 ([5]; 200 μM, insitu, 231): 1.7
Compound: O=C(CCl)N1CCC(Cc2ccccc2)CC1 [compound 9]

isoTOP-ABPP ratio, cysteine O75439_C265 ([7]; 200 μM, insitu, ramos): 2.1
isoTOP-ABPP ratio Q5MNZ6_C63 ([3]; 200 μM, insitu, 231): 3.6
isoTOP-ABPP ratio, cysteine Q5TFE4_C119 ([6]; ramos): 20.0
isoTOP-ABPP ratio, cysteine Q6XZF7_C691 ([4]; 200 μM, insitu, 231): 20.0
isoTOP-ABPP ratio, cysteine Q6XZF7_C691 ([4]; 200 μM, insitu, ramos): 20.0
isoTOP-ABPP ratio Q8NBS9_C350 ([5]; 200 μM, insitu, ramos): 1.4
isoTOP-ABPP ratio Q9NX18_C83 ([2]; 200 μM, insitu, 231): 4.4
Compound: O=C(CCl)N1CCN(S(=O)(=O)c2ccccc2F)CC1 [compound 10]

isoTOP-ABPP ratio, cysteine O75439_C265 ([7]; 100 μM in situ 231): 1.0
isoTOP-ABPP ratio, cysteine Q01433_C107 ([1]; 100 μM in situ 231): 0.6
isoTOP-ABPP ratio Q5MNZ6_C63 ([3]; 100 μM in situ 231): 0.9
isoTOP-ABPP ratio Q8NBS9_C350 ([5]; 100 μM in situ 231): 3.4
isoTOP-ABPP ratio Q9NX18_C83 ([2]; 100 μM in situ 231): 1.1
Compound: Cn1cc(S(=O)(=O)N2CCOCC2)cc1C(=O)NC(=O)CCl [compound 11]

isoTOP-ABPP ratio Q5MNZ6_C63 ([3]; 200 μM, insitu, 231): 20.0
isoTOP-ABPP ratio Q8NBS9_C350 ([5]; 200 μM, insitu, 231): 9.4
isoTOP-ABPP ratio Q9NX18_C83 ([2]; 200 μM, insitu, 231): 20.0
Compound: O=C(CCl)NC(=O)NC12CC3CC(CC(C3)C1)C2 [compound 12]

isoTOP-ABPP ratio Q5MNZ6_C63 ([3]; 200 μM, insitu, 231): 1.1
isoTOP-ABPP ratio, cysteine Q5TFE4_C119 ([6]; ramos): 1.7
isoTOP-ABPP ratio, cysteine Q6XZF7_C691 ([4]; 200 μM, insitu, 231): 1.6
isoTOP-ABPP ratio Q8NBS9_C350 ([5]; 200 μM, insitu, 231): 1.3
Compound: O=C(CCl)NCCc1c[nH]c2ccccc12 [compound 13]

isoTOP-ABPP ratio Q5MNZ6_C63 ([3]; 200 μM, insitu, 231): 0.8
isoTOP-ABPP ratio, cysteine Q5TFE4_C119 [6]; 231: 1.2
isoTOP-ABPP ratio, cysteine Q6XZF7_C691 ([4]; 200 μM, insitu, 231): 0.8
isoTOP-ABPP ratio Q9NX18_C83 ([2]; 200 μM, insitu, 231): 1.3
Compound: O=C(CCl)NC12CC3CC(CC(C3)C1)C2 [compound 21]

isoTOP-ABPP ratio O75439_C265 ([7]; 200 μM, insitu, 231): 1.6
isoTOP-ABPP ratio Q01433_C107 ([1]; 200 μM, insitu, 231): 0.4
isoTOP-ABPP ratio Q8NBS9_C350 ([5]; 200 μM, insitu, 231): 1.1
isoTOP-ABPP ratio Q9NX18_C83 ([2]; 200 μM, insitu, 231): 1.5
Compound: CC(C)CCOCCNC(=O)CCl [compound 27]

isoTOP-ABPP ratio O75439_C265 ([7]; 200 μM, insitu, 231): 0.6
isoTOP-ABPP ratio Q5MNZ6_C63 ([3]; 200 μM, insitu, 231): 1.7
isoTOP-ABPP ratio Q8NBS9_C350 ([5]; 200 μM, insitu, 231): 1.1
Compound: COc1ccccc1OCCNC(=O)CCl [compound 28]

isoTOP-ABPP ratio Q9NX18_C83 ([2]; 200 μM, insitu, ramos): 1.9
Compound: O=C(CCl)N1CCN(CC(=O)N2CCOCC2)CC1 [compound 29]

isoTOP-ABPP ratio O75439_C265 ([7]; 200 μM, insitu, 231): 1.0
isoTOP-ABPP ratio O75439_C265 ([7]; 200 μM, insitu, ramos): 1.4
isoTOP-ABPP ratio Q01433_C107 ([1]; 200 μM, insitu, 231): 0.7
isoTOP-ABPP ratio Q5TFE4_C119 [6]; 231: 3.1
isoTOP-ABPP ratio Q6XZF7_C691 ([4]; 200 μM, insitu, 231): 2.3
isoTOP-ABPP ratio Q8NBS9_C350 ([5]; 200 μM, insitu, 231): 0.8
Compound: C=CC(=O)N(Cc1cccnc1)c1cc(C(F)(F)F)cc(C(F)(F)F)c1 [compound 31]

isoTOP-ABPP ratio O75439_C265 ([7]; 200 μM, insitu, 231): 1.3
isoTOP-ABPP ratio Q01433_C107 ([1]; 200 μM, insitu, 231): 0.5
isoTOP-ABPP ratio Q5MNZ6_C63 ([3]; 200 μM, insitu, 231): 0.8
isoTOP-ABPP ratio Q5TFE4_C119 [6]; 231: 0.5
isoTOP-ABPP ratio Q8NBS9_C350 ([5]; 200 μM, insitu, 231): 0.9
Compound: Cc1ccc(C=C(C#N)C(=O)NCCN2CCOCC2)cc1 [compound 41]

isoTOP-ABPP ratio Q5MNZ6_C63 ([3]; 200 μM, insitu, 231): 2.6
isoTOP-ABPP ratio Q8NBS9_C350 ([5]; 200 μM, insitu, 231): 2.1
isoTOP-ABPP ratio Q9NX18_C83 ([2]; 200 μM, insitu, 231): 3.7
Compound: CC1CCc2ccccc2N1C(=O)CCl (centres unmarked) [compound 45]

isoTOP-ABPP ratio Q9NX18_C83 ([2]; 200 μM, insitu, 231): 1.0
Compound: O=C(CCl)Nc1cccc2ncccc12 [compound 51]

Reference: patent US10670605B2, “Cysteine reactive probes and uses thereof” (The Scripps Research Institute, priority 2015, dated 2020)
